From US20260241048A1, “PSMA-TARGETED RADIOPHARMACEUTICALS AND DNA DAMAGE RESPONSE INHIBITOR COMBINATION THERAPY” (FUSION PHARMACEUTICALS INC., priority 2023, published 2026)

Experiments:
[1] = tested on: PC3-PSMA xenograft; assay: In vivo combination study of ^225Ac-Compound I and olaparib in PC3-PSMA tumor xenograft bearing mouse model
Protocol: An in vivo combination study was conducted with ^225Ac-Compound I and olaparib using a PSMA overexpressing PC3 (PC3-PSMA, prostate cancer) tumor xenograft bearing mouse model. Groups of mice (n=5/group) were treated with ^225Ac-Compound I administered as a single dose (intravenous), at a dose sub-optimal for monotherapeutic efficacy (1.23 MBq/kg or 1 μCi, based on 30 g mice). Additional groups of mice (n=5/group) were dosed daily with olaparib (oral gavage) using a dose range of 25, 50, or 100 mg/kg for 28 consecutive days in combination with ^225Ac-Compound I. Olaparib dosing started on the same day that ^225Ac-Compound I was dosed (FIG. 1). Olaparib monotherapy and vehicle control groups (n=5/group) were included as controls. Tumor measurements were taken 2-3 times per week and used to calculate tumor volume. Study duration was for 50 days after initial therapeutic administration.
Tumor growth in study animals was tracked over time and expressed as Relative Tumor Volume (RTV; tumor volume on day X divided by initial tumor volume on day 0) (FIGS. 2A-2C). Single agent olaparib monotherapy was found ineffective at all dose levels tested.

[2] = tested on: PC3-PSMA xenograft; assay: In vivo combination study of ^225Ac-Compound I and elimusertib in PC3-PSMA tumor xenograft bearing mouse model; conditions: 1.23 MBq/kg [^225Ac]-Compound I single i.v. dose combined with elimusertib 5, 20 and 40 mg/kg; compared to either monotherapy or vehicle
Protocol: Groups of mice (n=5/group) were treated with ^225Ac-Compound I, administered as a single dose (intravenous), at a dose sub-optimal for monotherapeutic efficacy (1.23 MBq/kg or 1 μCi, based on 30 g mice). […] Tumor measurements were taken 2-3 times per week and used to calculate tumor volume. Study duration was 61 days after initial therapeutic administration.
Tumor growth was tracked over time and expressed as Relative Tumor Volume (RTV; tumor volume on day X divided by initial tumor volume on day 0) (FIGS. 4A-4C).

SMILES | Tumor growth inhibition (Relative Tumor Volume) ([1]; 1.23 MBq/kg [^225Ac]-Compound I single i.v. dose combined with olaparib 25, 50 or 100 mg/kg daily, compared to either monotherapy or vehicle) | Tumor growth inhibition (Relative Tumor Volume) [2] | Tumor growth (Relative Tumor Volume) ([1]; single agent olaparib monotherapy, oral gavage daily for 28 days, all dose levels tested (25, 50, 100 mg/kg))
O=C(O)CC[C@H](NC(=O)N[C@@H](CCCCNC(=O)CCCCCCC(=O)NCCCC[C@@H](NC(=O)[C@@H](Cc1ccccc1)NC(=O)[C@@H](Cc1ccc(O)c(I)c1)NC(=O)CCC(C(=O)O)N1CCN(CC(=O)O)CCN(CC(=O)O)CCN(CC(=O)O)CC1)C(=O)O)C(=O)O)C(=O)O (stereo partly drawn) [[^225Ac]-Compound I, metal not drawn] | enhanced tumor growth inhibition | enhanced tumor growth inhibition | –
O=C(c1cc(Cc2n[nH]c(=O)c3ccccc23)ccc1F)N1CCN(C(=O)C2CC2)CC1 [olaparib, reference compound] | – | – | ineffective
